The values that follow come from article PMC10222987 (Viruses, 2023).

pEC50, pIC50: −log10 of the molar value. Where two headings read alike, the source gives them in different places. A value given as a limit tells only on which side of the number the result lay.

For test [1], the system named is H1N1pdm09 (A/Osaka/129/2009) PA/I38T. The format is cell-based, influenza A virus.
Test [2] concerns rgH1N1.WT. Conditions: mouse, in vivo.
The test system of test [3] is rgH1N1.PA/I38T. More on the design: species or system BALB/c mice. Conditions: mouse, in vivo.
The subject of test [4] is rgH1N1.NA/H275Y. Also on record: species or system BALB/c mice. Conditions: mouse, in vivo.
For a further test, the system named is H1N1pdm09.PA/I38T. Also on record: species or system BALB/c mice. Conditions: mouse, in vivo.
The test system of the next test is rgH3N2.WT. Conditions: hamster, in vivo.
A further test relates to rgH3N2.PA/I38T. More on the design: species or system Syrian hamsters. Conditions: hamster, in vivo.
Test [5] deals with rgH1N1.WT. Conditions: mouse, in vivo. This is another data set of the same source.
Test [6] concerns rgH1N1.PA/I38T. More on the design: species or system BALB/c mice. Conditions: mouse, in vivo. This is another data set of the same source.
Test [7] has as its system rgH1N1.NA/H275Y. Also on record: species or system BALB/c mice. Conditions: mouse, in vivo. This is another data set of the same source.
Test [8] relates to H1N1 (rgA/WSN/33) NA/H275Y. Conditions: cited from earlier work.
For test [9], the system named is H1N1 (rgA/WSN/33) PA/I38T. Conditions: cited from earlier work.
Test [10] concerns H3N2 (rgA/Victoria/3/75) PA/I38T. Conditions: cited from earlier work.
Test [11] concerns H1N1 (rgA/WSN/33) NA/H275Y. Conditions: cited from earlier work. This is another data set of the same source.
For test [12], the system named is H1N1 (rgA/WSN/33) PA/I38T. Conditions: cited from earlier work. This is another data set of the same source.
Test [13] relates to H3N2 (rgA/Victoria/3/75) PA/I38T. Conditions: cited from earlier work. The source holds these as a separate data set.
For test [14], the system named is rgH1N1.PA/I38T. More on the design: species or system BALB/c mice. Conditions: mouse, in vivo. This is another data set of the same source.

`O=C1c2c(O)c(=O)ccn2N([C@@H]2c3ccccc3SCc3c2ccc(F)c3F)[C@@H]2COCCN12` [baloxavir acid]: the pEC50 is 7.80 in test [1], 9.49 in test [8], 7.94 in test [9] and 7.20 in [10]. Further, the “FC (fold change of EC50 relative to WT)” value in test [1] is 25.74 fold; in test [8], 0.77 fold; in test [9], 27.24 fold; in [10], 56.59 fold. Besides, in the test with rgH1N1.WT [2], the “Antiviral activity vs oseltamivir phosphate (5 mg/kg, twice daily)” value is listed as “significantly greater than oseltamivir phosphate”. In addition, the Lung virus titer is reported as below 1.5 log10 TCID50/mL in the test with rgH1N1.WT [2]; below 1.5 log10 TCID50/mL in the test with rgH1N1.NA/H275Y [4]; 1.87 log10TCID50/mL in the test with H1N1pdm09.PA/I38T (sc, 30 mg/kg). The “Lung virus titers vs vehicle” value in the test with rgH1N1.WT [2] is “significantly lower than vehicle-treated groups at all doses”; in the test on rgH1N1.PA/I38T [3], “significantly lower than vehicle”; in the test on rgH1N1.PA/I38T [3] (sc, 10 mg/kg), “significant decrease in virus titers”. In addition, the “Antiviral effect vs oseltamivir phosphate (5 mg/kg, twice daily)” value in the test on rgH1N1.PA/I38T [3] is “statistically similar”. The “Reduction of virus titers compared with vehicle” value in the test with rgH1N1.PA/I38T [3] came out at 1.88 log10 TCID50/mL. The “Viral rebound (increase in virus titers after dosing)” value in the test on rgH1N1.PA/I38T [3] and in the test on H1N1pdm09.PA/I38T was “did not observe any increase in virus titers” each time. In addition, the “Antiviral activity vs oseltamivir phosphate” value in the test with rgH1N1.NA/H275Y [4] is reported as “significantly higher antiviral activity compared with oseltamivir phosphate”. For the same compound, the “Lung virus titers vs vehicle, time course” value with H1N1pdm09.PA/I38T is reported as “significantly lower with baloxavir than the vehicle-treated mice”. In the test on H1N1pdm09.PA/I38T, the “Reduction in lung virus titers vs oseltamivir phosphate (5 mg/kg, twice daily)” value is on record as “statistically similar”. The entries for the “Reduction in virus titers vs vehicle and oseltamivir phosphate” value with rgH3N2.WT and in the test with rgH3N2.PA/I38T were “significantly higher reduction in virus titers” and “statistically significant reduction in virus titers”, respectively. For the same compound, the “Inhibitory effect on loss of body weight vs vehicle” value in the test on rgH1N1.WT [5], with rgH1N1.PA/I38T [6] and in the test with rgH1N1.NA/H275Y [7] was “significant inhibitory effect on loss of body weight” in each case. Moreover, the “Inhibitory effect on loss of body weight vs oseltamivir phosphate” value in the test with rgH1N1.NA/H275Y [7] is given as “significantly greater with baloxavir acid than with oseltamivir phosphate”.

Turning to `CCC(CC)O[C@@H]1C=C(C(=O)O)C[C@H](N)[C@H]1NC(C)=O` [oseltamivir acid], the “FC (fold change of IC50 relative to WT)” value in [11] is 226.12 fold; in test [12], 1.00 fold; in [13], 1.21 fold. The pIC50 in test [11] is 6.74; in test [12], 9.10; in test [13] it was 9.80.

With `CCOC(=O)C1=C[C@@H](OC(CC)CC)[C@H](NC(C)=O)[C@@H](N)C1` [oseltamivir phosphate], the “Degree of virus titer reduction” value with rgH1N1.WT [2] was 1.15 log10TCID50/mL; in the test with rgH1N1.NA/H275Y [4], 0.38 log10TCID50/mL. The “Lung virus titers vs vehicle” value with rgH1N1.WT [2], in the test on rgH1N1.PA/I38T [3], in the test on rgH1N1.NA/H275Y [4] and in the test with H1N1pdm09.PA/I38T was “statistically lower compared with vehicle” throughout. This compound also came in with a Mean virus titer in the test on rgH1N1.PA/I38T [14] of 3.17 log10 TCID50/mL.
